Laboratory results: patent US20130252890A1, “6,7-DIHYDRO-5H-BENZO[7]ANNULENE DERIVATIVES, PROCESS FOR PREPARATION THEREOF, PHARMACEUTICAL PREPARATIONS COMPRISING THEM, AND THE USE THEREOF FOR PRODUCTION OF MEDICAMENTS” (BAYER INTELLECTUAL PROPERTY GMBH, priority 2010, published 2013)
pIC50: −log10 of the molar value.

These molecules were tested against T1, oestrogen receptor (ER) (Homo sapiens, UniProt P03372) (assay: Anti-oestrogenic action in MVLN cells (inhibition of estradiol-induced luciferase)). Details: inhibition of estradiol-induced luciferase signal, value of Ex. 44 is a mean value, read-out: Antioestrogenic action in vitro: MVLN transactivation antagonism IC50.
T1 construct: These MVLN cells express, along with the functional oestrogen receptor (ER), a reporter construct; endogenous in cells; host or cells: MVLN cells (MCF7 derivative carrying a luciferase reporter construct)
T1 sequence (P03372 1-595): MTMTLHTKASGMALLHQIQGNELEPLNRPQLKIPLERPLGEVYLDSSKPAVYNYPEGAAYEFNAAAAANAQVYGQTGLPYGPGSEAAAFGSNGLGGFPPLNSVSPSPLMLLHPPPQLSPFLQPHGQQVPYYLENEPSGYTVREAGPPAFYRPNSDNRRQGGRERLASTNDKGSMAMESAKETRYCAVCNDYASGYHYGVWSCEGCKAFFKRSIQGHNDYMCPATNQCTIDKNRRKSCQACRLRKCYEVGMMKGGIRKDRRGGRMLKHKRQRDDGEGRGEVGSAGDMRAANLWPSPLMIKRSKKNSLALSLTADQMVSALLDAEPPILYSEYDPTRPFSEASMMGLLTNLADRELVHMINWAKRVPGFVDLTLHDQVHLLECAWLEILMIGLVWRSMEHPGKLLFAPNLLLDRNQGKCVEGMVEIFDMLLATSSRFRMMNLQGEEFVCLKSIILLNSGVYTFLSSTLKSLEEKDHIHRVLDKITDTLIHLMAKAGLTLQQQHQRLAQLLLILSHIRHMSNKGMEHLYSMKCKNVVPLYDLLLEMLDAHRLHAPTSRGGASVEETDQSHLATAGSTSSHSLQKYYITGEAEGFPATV
Format: cell-based
Procedure, shortened: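 MVLN cells, MCF7 breast cancer derivatives carrying functional ER plus an ER-activated luciferase reporter, were treated with compounds in the presence of estradiol. Anti-oestrogenic activity taken as inhibition of the estradiol-induced luciferase signal.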
CN(CCCCCCC1=C(c2ccc(F)cc2F)CCCc2cc(O)ccc21)CCCCCS(=O)(=O)CCC(F)(F)F [Example 133, 8-(2,4-Difluorophenyl)-9-[6-(methyl{5-[(3,3,3-trifluoropropyl)sulphonyl]pentyl}amino)hexyl]-6,7-dihydro-5H-benzo[7]annulen-3-ol] showed a pIC50 of 8.15.
CN(CCCCCC1=C(c2ccc(F)cc2)CCCc2cc(O)ccc21)CCCS(=O)(=O)CCCC(F)(F)C(F)(F)F [Example 127] gave a pIC50 of 7.16.
CN(CCCCCCC1=C(c2ccc(F)cc2)CCCc2cc(O)c(F)cc21)CCCCCS(=O)(=O)CCC(F)(F)F [Example 107, 2-Fluoro-8-(4-fluorophenyl)-9-[6-(methyl{5-[(3,3,3-trifluoropropyl)sulphonyl]pentyl}amino)hexyl]-6,7-dihydro-5H-benzo[7]annulen-3-ol] was tested, and the pIC50 was 6.91.
CN(CCCCCCC1=C(c2ccc(F)cc2)CCCc2cc(O)ccc21)CCCS(=O)(=O)CCCCCC(F)(F)F [Example 148, 8-(4-Fluorophenyl)-9-[6-(methyl{3-[(6,6,6-trifluorohexyl)sulphonyl]propyl}amino)hexyl]-6,7-dihydro-5H-benzo[7]annulen-3-ol] gave a pIC50 of 7.77.
For CN(CCCCCCC1=C(c2cc(F)ccc2F)CCCc2cc(O)ccc21)CCCCS(=O)(=O)CCCC(F)(F)F [Example 143, 8-(2,5-Difluorophenyl)-9-[6-(methyl{4-[(4,4,4-trifluorobutyl)sulphonyl]butyl}amino)hexyl]-6,7-dihydro-5H-benzo[7]annulen-3-ol], the pIC50 was 8.05.
CN(CCCCCCC1=C(c2ccc(F)cc2)CCCc2c1ccc(O)c2F)CCCCS(=O)(=O)CCCC(F)(F)C(F)(F)F [Example 39, 4-Fluoro-8-(4-fluorophenyl)-9-[6-(methyl{4-[(4,4,5,5,5-pentafluoropentyl)sulphonyl]butyl}amino)hexyl]-6,7-dihydro-5H-benzo[7]annulen-3-ol] was tested, and the pIC50 was 8.10.
O=S(=O)(CCCCC(F)(F)F)CCCNCCCCCCC1=C(c2ccc(F)cc2)CCCc2cc(O)ccc21 [Example 112, 8-(4-Fluorophenyl)-9-[6-({3-[(5,5,5-trifluoropentyl)sulphonyl]propyl}amino)hexyl]-6,7-dihydro-5H-benzo[7]annulen-3-ol] was tested, and the pIC50 was 8.15.
Work on CC(C)(O)CN(CCCCCCC1=C(c2cc(F)cc(F)c2)CCCc2cc(O)ccc21)CCC[S+]([O-])CCC(F)(F)F (stereo not drawn) [Example 10, 8-(3,5-Difluorophenyl)-9-{6-[(2-hydroxy-2-methylpropyl){3-[(3,3,3-trifluoropropyl)sulphinyl]propyl}amino]hexyl}-6,7-dihydro-5H-benzo[7]annulen-3-ol] yielded a pIC50 of 7.42.
Molecule CN(CCCCCCC1=C(c2ccc(F)c(F)c2)CCCc2cc(O)ccc21)CCCCCS(=O)(=O)CCC(F)(F)F [Example 71, 8-(3,4-Difluorophenyl)-9-[6-(methyl{5-[(3,3,3-trifluoropropyl)sulphonyl]pentyl}amino)hexyl]-6,7-dihydro-5H-benzo[7]annulen-3-ol] has a pIC50 of 7.25.
For CN(CCCCCCC1=C(c2ccc(F)cc2F)CCCc2cc(O)ccc21)CCCCS(=O)(=O)CCCC(F)(F)C(F)(F)F [Example 147, 8-(2,4-Difluorophenyl)-9-[6-(methyl{4-[(4,4,5,5,5-pentafluoropentyl)sulphonyl]butyl}amino)hexyl]-6,7-dihydro-5H-benzo[7]annulen-3-ol], the pIC50 was 7.49.
For COCCCN(CCCCCCC1=C(c2ccc(F)cc2)CCCc2c1ccc(O)c2F)CCCS(=O)(=O)CCCC(F)(F)C(F)(F)F [Example 41, 4-Fluoro-8-(4-fluorophenyl)-9-{6-[(3-methoxypropyl){3-[(4,4,5,5,5-pentafluoropentyl)sulphonyl]propyl}amino]hexyl}-6,7-dihydro-5H-benzo[7]annulen-3-ol], the pIC50 was 7.38.
Molecule O=S(=O)(CCCN(CCO)CCCCCCC1=C(c2ccc(F)cc2)CCCc2cc(O)c(F)cc21)CCCC(F)(F)F [Example 103, 2-Fluoro-8-(4-fluorophenyl)-9-{6-[(2-hydroxyethyl){3-[(4,4,4-trifluorobutyl)sulphonyl]propyl}amino]hexyl}-6,7-dihydro-5H-benzo[7]annulen-3-ol] has a pIC50 of 8.30.
[2H]C([2H])([2H])N(CCCCCCC1=C(c2cc(F)ccc2F)CCCc2cc(O)ccc21)CCCS(=O)(=O)CCCCC(F)(F)F [Example 137, 8-(2,5-Difluorophenyl)-9-{6-[(^2H3)methyl{3-[(5,5,5-trifluoropentyl)sulphonyl]propyl}amino]hexyl}-6,7-dihydro-5H-benzo[7]annulen-3-ol] gave a pIC50 of 8.22.
CC(C)(O)CN(CCCCCCC1=C(c2ccc(F)cc2)CCCc2cc(O)ccc21)CCCS(=O)(=O)CCC(F)(F)F [Example 119, 8-(4-fluorophenyl)-9-{6-[(2-hydroxy-2-methylpropyl){3-[(3,3,3-trifluoropropyl)sulphonyl]propyl}amino]hexyl}-6,7-dihydro-5H-benzo[7]annulen-3-ol] was tested, and the pIC50 was 7.10.
Molecule CN(CCCCCCC1=C(c2ccc(F)cc2)CCCc2cc(O)ccc21)CCCS(=O)(=O)CCC(F)(F)F [Example 53, 8-(4-Fluorophenyl)-9-[6-(methyl{3-[(3,3,3-trifluoropropyl)sulphonyl]propyl}amino)hexyl]-6,7-dihydro-5H-benzo[7]annulen-3-ol] has a pIC50 of 7.07.
CN(CCCCCCC1=C(c2ccc(F)cc2)CCCc2c1ccc(O)c2F)CCCC[S+]([O-])CCCC(F)(F)C(F)(F)F (stereo not drawn) [Example 35, 4-Fluoro-8-(4-fluorophenyl)-9-[6-(methyl{4-[(4,4,5,5,5-pentafluoropentyl)sulphinyl]butyl}amino)hexyl]-6,7-dihydro-5H-benzo[7]annulen-3-ol] gave a pIC50 of 8.00.
Molecule CC(C)(O)CN(CCCCCCC1=C(c2ccc(F)c(F)c2)CCCc2cc(O)ccc21)CCCS(=O)(=O)CCCC(F)(F)C(F)(F)F [Example 29, 8-(3,4-Difluorophenyl)-9-{6-[(2-hydroxy-2-methylpropyl){3-[(4,4,5,5,5-pentafluoropentyl)sulphonyl]propyl}amino]hexyl}-6,7-dihydro-5H-benzo[7]annulen-3-ol] has a pIC50 of 8.00.
Molecule CN(CCCCCC1=C(c2ccc(F)cc2)CCCc2cc(O)ccc21)CCCCS(=O)(=O)CCCC(F)(F)F [Example 49, 8-(4-Fluorophenyl)-9-[5-(methyl{4-[(4,4,4-trifluorobutyl)sulphonyl]butyl}amino)pentyl]-6,7-dihydro-5H-benzo[7]annulen-3-ol] has a pIC50 of 6.74.
In the case of COCCCN(CCCCCCC1=C(c2cc(F)cc(F)c2)CCCc2cc(O)ccc21)CCCS(=O)(=O)CCCC(F)(F)C(F)(F)F [Example 16, 8-(3,5-Difluorophenyl)-9-{6-[(3-methoxypropyl){3-[(4,4,5,5,5-pentafluoropentyl)sulphonyl]propyl}amino]hexyl}-6,7-dihydro-5H-benzo[7]annulen-3-ol], the pIC50 was 7.57.
In the case of CN(CCCCCCC1=C(c2ccc(F)cc2)CCCc2cc(O)ccc21)CCCCS(=O)(=O)CCC(F)(F)C(F)(F)F [Example 75, 8-(4-Fluorophenyl)-9-[6-(methyl{4-[(3,3,4,4,4-pentafluorobutyl)sulphonyl]butyl}amino)hexyl]-6,7-dihydro-5H-benzo[7]annulen-3-ol], the pIC50 was 7.96.
Molecule O=S(=O)(CCCN(CCCCCCC1=C(c2ccc(F)cc2)CCCc2cc(O)ccc21)Cc1ccc(F)cc1)CCCC(F)(F)C(F)(F)F [Example 58, 9-{6-[(4-Fluorobenzyl){3-[(4,4,5,5,5-pentafluoropentyl)sulphonyl]propyl}amino]hexyl}-8-(4-fluorophenyl)-6,7-dihydro-5H-benzo[7]annulen-3-ol] has a pIC50 of 6.74.
